Key:
[1] = test system: mouse liver cancer cell line (Hepa1-6); assay: Genomic DNA fragmentation by gel electrophoresis; type: cell-based; settings: Hepa1-6, 24 hours, FIG. 3
Description: The cell-killing effect of ginsenoside F2 on the mouse liver cancer cell line (Hepa1-6) was confirmed by confirming the degree of DNA degradation.
Specifically, the ginsenoside F2 prepared in Example 1 was treated to the mouse liver cancer cell line (Hepa1-6) at various concentrations ([…]). After 24 hours, the cells were harvested, and the genomic DNA was extracted using a genomic DNA extraction kit (iNtRON, USA) according to the experimental method provided by the manufacturer, and subsequently, a gel electrophoresis was carried out.

[2] = test system: liver cancer-induced mice; assay: Serum ALT and AST in liver cancer-induced mice (VetTEST); type: in vivo, mouse; settings: 50 mg/kg three times a week for 20 weeks, vs vehicle-treated group
Description: (§1) Diethylnitrosamine (DEN), a hepatocarcinogen, was injected intraperitoneally into 14-day-old male mice at a concentration of 20 mg/kg to induce the formation of liver cancer. A vehicle (olive oil) or ginsenoside F2 (50 mg/kg) was treated three times a week from 20 weeks of age, and then 20 weeks later, the mice were sacrificed to confirm the inhibition of liver cancer formation.
Blood was collected from the abdominal aorta of the mice sacrificed in Example 3-1 above and centrifuged at 3,300 rpm for 10 minutes using a centrifuge, and then the serum was isolated only. Subsequently, the alanine aminotransferase (ALT), aspartate aminotransferase (AST) and triglyceride were measured by a VetTEST® (IDEXX, USA) according to the experimental method provided by the manufacturer using a kit provided by IDEXX Laboratories (USA).

[3] = test system: liver cancer-induced mice; assay: Liver histology (H&E) and flow cytometry of liver immune cells in liver cancer-induced mice; type: in vivo, mouse; settings: vs vehicle-treated group
Description: as §1
The mice sacrificed in Example 3-1 above were cut open ventrally to remove the liver, and then H&E ([…] and eosin) staining was performed to observe the histological changes of the liver.
In order to specifically measure the activity of the immune cells, the immune cells were isolated from the removed liver, and the stained cells were analyzed via a flow cytometer (LSRII, BD bioscience) using the markers shown in Table 1.

Hepa1-6 cells = assay: Cell survival rate (EZ-CYTOX), mouse liver cancer cell line; type: cell-based; settings: 10 to 60 μM, 24 hours, FIG. 1b
Description: (§2) The ginsenoside F2 prepared in Example 1 was treated to Hep3B cells, a human liver cancer cell line, Hepa1-6 cells, a mouse liver cancer cell line, and mouse normal hepatocytes at various concentrations (10 to 60 μM). After 24 hours, the survival rate of the cells was measured using EZ-CYTOX (Daeil Lab Service, Korea), which is used to measure the cell survival rate, according to the experimental method provided by the manufacturer.

[4] = test system: liver cancer-induced mice; assay: Diethylnitrosamine (DEN)-induced liver cancer formation in mice: size, number, weight of cancer tissues; type: in vivo, mouse; settings: 50 mg/kg three times a week for 20 weeks, vs vehicle-treated group
Description: as §1
The mice sacrificed in Example 3-1 above were cut open ventrally to remove the liver. Then, the size, number, and weight of the cancer tissues of the vehicle-treated group and the ginsenoside F2-treated group were compared.

mouse normal hepatocytes = assay: Cell survival rate (EZ-CYTOX), normal hepatocytes; type: cell-based; settings: 10 to 60 μM, 24 hours, FIG. 1c
Description: as §2

Hep3B cells = assay: Cell survival rate (EZ-CYTOX), human liver cancer cell line; type: cell-based; settings: 10 to 60 μM, 24 hours, FIG. 1a
Description: as §2

[5] = test system: human liver cancer cell line (Hep3B); assay: Cell death by phase contrast microscopy and DAPI/TUNEL staining; type: cell-based; settings: 10 to 60 μM, 24 hours
Description: The cell-killing effect of ginsenoside F2 on the human liver cell line (Hep3B) was confirmed using a phase contrast microscope and a fluorescence microscope.
Specifically, the ginsenoside F2 prepared in Example 1 was treated to the human liver cancer cell line (Hep3B) at various concentrations (10 to 60 μM), and after 24 hours, the state of the cells was observed under the phase contrast microscope. Further, the cells were stained using DAPI (4′,6-diamidino-2-phenylindole, Vector laboratory, USA) and TUNEL (terminal deoxyribonucleotidyl transferase mediated dUTP nick end labeling, Roche life science, USA). The staining was carried out according to the method provided by the manufacturer, and the degree of staining was observed under the fluorescence microscope.

[6] = 50 mg/kg three times a week for 20 weeks, FIG. 6a

For `CC(C)=CCC[C@](C)(O[C@@H]1O[C@H](CO)[C@@H](O)[C@H](O)[C@H]1O)[C@H]1CC[C@]2(C)[C@@H]1[C@H](O)C[C@@H]1[C@@]3(C)CC[C@H](O[C@@H]4O[C@H](CO)[C@@H](O)[C@H](O)[C@H]4O)C(C)(C)[C@@H]3CC[C@]12C` [ginsenoside F2], the “fragmented genomic DNA” value [1] was “increased with increasing concentration of ginsenoside F2”, the “serum ALT value” ([2]; FIG. 5a) was “reduced” and the “serum AST value” ([2]; FIG. 5b) was “reduced”. For the same compound, the “formation of liver cancer (H&E histology)” value [3, 6] was “inhibited”, the “infiltration of immune cells near the liver cancer tissues (H&E)” value [3, 6] was “increased” and the “number of CD8 T cells in liver” value ([3]; flow cytometry, FIG. 6b) was “increase”. For the same compound, the “number of macrophages in liver” value ([3]; flow cytometry, FIG. 6b) was “increase”, the “number of natural killer T cells in liver” value ([3]; flow cytometry, FIG. 6b) was “increase” and the “survival rate of mouse liver cancer cell line (Hepa1-6)” value (Hepa1-6 cells) was “decreased depending on the concentration of ginsenoside F2”. For the same compound, the body weight [4] was “no difference”, the “number of cancer tissues” value [4] was “reduced more than twice” and the “size of cancer tissues” value [4] was “significantly reduced”. For the same compound, the “weight of liver tissues” value [4] was “reduced”, the “survival rate of mouse normal hepatocytes” value (mouse normal hepatocytes) was “almost no change was observed” and the “survival rate of human liver cancer cell line (Hep3B)” value (Hep3B cells) was “decreased depending on the concentration of ginsenoside F2”. The “cell death under phase contrast microscope” value ([5]; FIG. 2a) was “cell death of human liver cancer cell line (Hep3B) was induced”, the “number of cells stained to DAPI” value ([5]; fluorescence microscope) was “no difference” and the “number of cells stained to TUNEL” value ([5]; fluorescence microscope, FIGS. 2a and 2b) was “increased depending on the concentration of ginsenoside F2”.

Source: US9943534B2, “Composition for preventing or treating liver cancer containing ginsenoside F2” (INTELLIGENT SYNTHETIC BIOLOGY CENTER, priority 2016, dated 2018)
